Data taken from patent EP2241565A1, “Aurora kinase inhibitors compounds” (Universität Leipzig, priority 2009, dated 2010).

Assays:
[1] = system: HeLa cells; experiment: Fixed cell analysis of mitotic phenotypes (fluorescence / immunofluorescence); format: cell-based, human; details: 2 µM, 24 h
Method: For fixed cell analysis, HeLa or H2B-GFP/mRFP-αTubulin HeLa cells were grown on glass coverslips and treated as described above. Cells were fixed in ice cold methanol and mounted in Mowiol. Alternatively, non fluorescent HeLa were treated and subjected to immunofluorescence with anti-tubulin antibodies (Sigma, DM1A) and Hoechst to stain the DNA. Cells were observed on a Leica DM16000B microscope with the HCX PL APO CS 63x 1.4 objective. Images were taken with a Leica DFC 350FX camera, controlled by Leica Application Suit (LAS-AF 6000) software and processed with Adobe Photoshop.
To get a better idea about the defects causing cell division failure in cells treated with (C), we examined fixed cells to better visualize the chromosomes and the microtubules. […] In parallel, standard HeLa cells were treated in the same way. The cells were fixed and processed for immunofluorescence with anti-tubulin antibodies to visualize the microtubules and Hoechst to stain the DNA.

[2] = system: hTERT-RPE1 cells; experiment: Cilia disassembly assay; format: cell-based; details: pretreatment 1-2 µM, serum stimulation after 48 h starvation
Method: Cilia assembly and disassembly assays were performed as described in Pugacheva et al., Cell 2007, 129, 1351-1363. […] For analysis of cilia disassembly, cilia were assembled by 48 h starvation in Opti-MEM, and disassembled by incubation in DMEM-10% serum. Cells were fixed after 2 and 4 h. […] To visualize the centrosomes and the cilia, fixed cells were immunostained with anti-γ-tubulin (Sigma GTU88) and anti-acetylated-tubulin (Sigma), and DNA was stained with Hoechst.

[3] = system: HeLa cells; experiment: Flow cytometry (FACS) DNA content / cell cycle profile; format: cell-based, human; details: 24 h
Method: Adherent HeLa cells were routinely passaged and maintained in D-MEM medium supplemented with 10% Fetal Bovine Serum (FBS), 1% Penicillin/Streptomycin and 2 mM L-Glutamine. The cells were cultured at 37 °C; 5% CO2. hTERT-RPE1 cells were grown in DMEM with 10% fetal bovine serum. HeLa cells constitutively expressing green fluorescent protein-conjugated Histone H2B and mRed fluorescent protein-conjugated α-tubulin were maintained in D-MEM medium supplemented with 10% Fetal Bovine Serum (FBS), 1% Penicillin/Streptomycin, 2 mM L-Glutamine and 0.5 µg/mL Puromycin and cultured at 37 °C; 5% CO2.
After treatment, FACS analysis was performed on a BD FACSCanto™ Flow Cytometer (Cat.No. 335860 BD Biosciences) using FACSDiva Software. Cells were trypsinized, washed wish PBS and fixed overnight in EtOH (-20°C). After washing with PBS, cells were stained with a propidium iodide solution (PI; 15 µg/mL)/ RNase A (30 µg/mL) for 30 min at 37 °C. RNase was added to avoid signals caused by the binding of PI to RNA.
We first examined by flow cytometry the cell cycle profiles of HeLa cells incubated in medium containing increasing concentrations of any of (A) or (C) for 24 h.

[4] = system: histone H3 phosphorylation on Ser 10; experiment: Western Blot analysis of histone H3 phosphorylation in mitotic cells; format: cell-based, human; details: mitotic HeLa cells synchronized with nocodazole, treated 20 h, any of the concentrations tested
Method: For Western Blot analysis of HH3 phosphorylation levels in mitosis HeLa cells were arrested with 2 mM thymidine for 18 h, released into fresh medium for 6 h, and blocked with 2 µM nocodazole for 16 h. DMSO or the different compounds were added 1 h after thymidine release. Mitotic cells were shaken off and lysed in 50 mM Tris pH 6,8- 2% SDS. Samples were sonicated and boiled. 30 µg protein extract (as determined by Bradford assay, Bio-Rad protein assay) was loaded on SDS-PAGE, transferred to a nitrocellulose membrane and blotted with anti-phospho HH3 (Upstate), anti-Aurora A and anti-tubulin antibodies (Sigma, DM1A).

[5] = system: H2B-GFP/mRFP-αTubulin HeLa cells; experiment: Time-lapse video microscopy of live cells; format: cell-based, human; details: 2 µM
Method: Upon treatment, living cells were added to a humidified chamber at 37 °C with 5% CO2 attached to a Carl Zeiss microscope (SN:3834000366) equipped with a Hamamatsu EM-CCD digital camera, controlled by AxioVision 4.6 software. Cells were imaged every 3 or 4.5 min (depending on the number of fields filmed) for over 16 h-24 h. Images were taken with the AxioCam MRm 426205 objective and processed using AxioVision software.
The increase in the proportion of cells with more than 2n DNA content could be due to several causes: several cycles of DNA replication or cytokinesis errors as shown for cells treated with other Aurora inhibitors. To determine the primary cause for the phenotype produced by (C) and examine whether (A) may interfere with mitosis, we examined live cells by time-lapse video microscopy. To visualize DNA and microtubules we used a HeLa stable cell line expressing H2B-GFP and mRFP-αTubulin. […] The resulting time-lapse images were used to determine the following parameters: (1) the percentage of cell death among non dividing cells (Figure 4A), (2) the percentage of cells entering mitosis (Figure 4B), (3) the outcome of mitosis: normal division (cell division), return to interphase without chromatin segregation and without dividing (no division), cytokinesis failure (division errors), cell death without resolving mitosis (cell death) (Figure 4C), and (4) the length of time spent in mitosis (TIM), defined as the interval between DNA condensation and anaphase resolution (Figure 4D).

COc1cc2c(Nc3ccc(NC(=O)c4ccccc4)cc3)ncnc2cc1OCCCN1CCOCC1 [ZM1, reference compound]
mitotic phenotype of fixed cells [1]: strong increase of the number of mitotic cells showing chromosome alignment defects in metaphase | cilia disassembly [2]: did not have any effect | % of cells 2<n<4 ([3]; 2µM, HeLa cells): 2.8% | % of cells 2n ([3]; 2µM, HeLa cells): 1.2% | % of cells 4n ([3]; 2µM, HeLa cells): 51.1% | % of cells <2n ([3]; 2µM, HeLa cells): 3.0% | % of cells >4n ([3]; 2µM, HeLa cells): 43.5% | effect on DNA content / distribution of cells in the cell cycle stages ([3]; ZM1 2 µM, (A) and (C) increasing concentrations): increased the proportion of cells with 4n and 8n DNA content | HH3-Ser10 phosphorylation [4]: strongly reduced | time spent in mitosis (TIM) [5]: 306 min | number of cells entering mitosis ([5]; 16 h-24 h): decreased by half | cells that de-condensed their DNA and went back to interphase without chromosome segregation ([5]; of cells in mitosis): 76%
